Experimental data taken from ChEMBL document CHEMBL1201862, “PubChem BioAssay data set” (2004).
Activity calls are given as the source filed them.

Experiments:
Mu-type opioid receptor = Mu-type opioid receptor (Homo sapiens, UniProt P35372); format: functional, cell-based;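 also: U2OS cells with beta-arrestin recruitment to OPRM1 by beta-gal complementation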
[1] = target: 5-hydroxytryptamine receptor 2A (Mus musculus, UniProt P35363); format: functional, cell-based;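 also: CHO-K1 cells with tagged receptor and beta-arrestin; agonist potency measured as compound-induced activation of the receptor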
Sequence of 5-hydroxytryptamine receptor 2A (P35363 whole entry): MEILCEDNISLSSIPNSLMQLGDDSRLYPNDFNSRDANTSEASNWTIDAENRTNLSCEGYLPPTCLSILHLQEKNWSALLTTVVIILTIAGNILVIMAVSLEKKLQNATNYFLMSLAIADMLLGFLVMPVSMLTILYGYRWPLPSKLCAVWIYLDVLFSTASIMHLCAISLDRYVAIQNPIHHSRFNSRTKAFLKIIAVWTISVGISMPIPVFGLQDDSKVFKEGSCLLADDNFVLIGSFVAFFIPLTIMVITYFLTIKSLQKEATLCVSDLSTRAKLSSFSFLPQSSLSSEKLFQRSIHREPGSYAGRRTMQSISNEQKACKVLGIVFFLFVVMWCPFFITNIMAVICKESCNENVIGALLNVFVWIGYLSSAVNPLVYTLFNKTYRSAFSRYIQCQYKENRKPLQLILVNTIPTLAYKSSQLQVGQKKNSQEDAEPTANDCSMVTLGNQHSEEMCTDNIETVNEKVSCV

[2] = target: T1, Probable nicotinate-nucleotide adenylyltransferase (Staphylococcus aureus (strain N315), UniProt P65502); format: functional, Staphylococcus aureus subsp. aureus N315;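 as to IC50 Mean: confirmatory dose-response retesting of NadD inhibitor hits first found in an ultra-high-throughput screen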
T1 sequence (P65502 whole entry): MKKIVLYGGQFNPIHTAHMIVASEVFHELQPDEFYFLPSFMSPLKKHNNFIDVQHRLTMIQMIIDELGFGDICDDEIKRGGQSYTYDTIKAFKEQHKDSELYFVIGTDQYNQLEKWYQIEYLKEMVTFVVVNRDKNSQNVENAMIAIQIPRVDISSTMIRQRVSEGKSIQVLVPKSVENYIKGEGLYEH

Protein RecA = target: T2, Protein RecA (Mycobacterium tuberculosis, UniProt P9WHJ3); experiment: Fluorescence Cell-Free Homogeneous Dose Retest to Identify Inhibitors of RecA-Intein Splicing Activity. [Related pubchem assays (depositor defined):AID2097, AID2223, AID489010, AID492950]; format: functional
T2 sequence (P9WHJ3 whole entry): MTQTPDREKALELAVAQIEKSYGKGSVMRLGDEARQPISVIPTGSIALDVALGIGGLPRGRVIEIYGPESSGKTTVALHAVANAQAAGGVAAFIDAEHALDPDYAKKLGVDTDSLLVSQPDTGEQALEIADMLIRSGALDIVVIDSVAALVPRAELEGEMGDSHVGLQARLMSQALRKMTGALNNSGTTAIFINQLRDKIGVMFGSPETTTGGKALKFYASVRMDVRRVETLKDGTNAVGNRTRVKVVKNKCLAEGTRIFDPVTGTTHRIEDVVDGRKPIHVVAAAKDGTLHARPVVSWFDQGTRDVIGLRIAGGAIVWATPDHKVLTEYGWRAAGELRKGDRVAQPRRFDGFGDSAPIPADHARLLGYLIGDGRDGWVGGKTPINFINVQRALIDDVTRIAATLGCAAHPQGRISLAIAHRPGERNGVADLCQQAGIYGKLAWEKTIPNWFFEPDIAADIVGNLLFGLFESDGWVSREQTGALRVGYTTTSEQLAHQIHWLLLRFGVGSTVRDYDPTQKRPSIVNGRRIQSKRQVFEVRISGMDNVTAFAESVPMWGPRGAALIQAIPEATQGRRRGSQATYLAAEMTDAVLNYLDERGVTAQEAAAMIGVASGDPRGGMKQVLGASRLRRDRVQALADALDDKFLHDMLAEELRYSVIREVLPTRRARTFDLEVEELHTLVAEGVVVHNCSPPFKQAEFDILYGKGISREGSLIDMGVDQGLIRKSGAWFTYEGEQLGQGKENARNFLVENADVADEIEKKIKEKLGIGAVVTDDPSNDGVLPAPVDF

[3] = target: T1, Probable nicotinate-nucleotide adenylyltransferase; format: functional, Staphylococcus aureus subsp. aureus N315; settings: read-out: IC50_Mean
[4] = target: T3, Replicative DNA helicase DnaB (Mycobacterium tuberculosis, UniProt P9WMR3); experiment: DnaB intein splicing inhibitors, dose response, biochemical, cell-free fluorescence (AID 449749); format: functional
T3 sequence (P9WMR3 whole entry): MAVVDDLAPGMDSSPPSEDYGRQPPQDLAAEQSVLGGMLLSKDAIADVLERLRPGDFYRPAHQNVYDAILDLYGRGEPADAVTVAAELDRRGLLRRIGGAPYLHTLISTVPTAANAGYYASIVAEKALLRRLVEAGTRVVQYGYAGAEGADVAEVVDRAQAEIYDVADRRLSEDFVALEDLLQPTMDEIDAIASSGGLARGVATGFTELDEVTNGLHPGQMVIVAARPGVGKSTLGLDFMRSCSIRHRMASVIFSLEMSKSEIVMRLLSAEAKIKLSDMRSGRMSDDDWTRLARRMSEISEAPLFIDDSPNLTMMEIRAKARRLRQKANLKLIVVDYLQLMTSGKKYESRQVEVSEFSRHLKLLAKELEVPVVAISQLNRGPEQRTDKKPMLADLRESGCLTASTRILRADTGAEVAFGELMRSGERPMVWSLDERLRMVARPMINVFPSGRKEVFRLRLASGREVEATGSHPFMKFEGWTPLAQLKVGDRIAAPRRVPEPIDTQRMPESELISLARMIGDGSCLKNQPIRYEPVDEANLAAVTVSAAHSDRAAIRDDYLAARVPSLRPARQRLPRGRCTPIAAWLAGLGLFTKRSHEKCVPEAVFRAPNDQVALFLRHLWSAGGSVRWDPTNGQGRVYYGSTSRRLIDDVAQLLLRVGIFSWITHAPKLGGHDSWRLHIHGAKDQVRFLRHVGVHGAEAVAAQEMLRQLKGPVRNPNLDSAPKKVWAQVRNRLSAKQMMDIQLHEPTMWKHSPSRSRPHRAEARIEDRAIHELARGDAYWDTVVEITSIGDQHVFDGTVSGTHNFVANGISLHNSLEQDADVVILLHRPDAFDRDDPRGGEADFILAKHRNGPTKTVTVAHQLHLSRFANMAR

[5] = blockers of HIV-1 envelope-mediated cell-cell fusion – cherry-pick, dose response (AID 652057); format: functional, cell-based
[6] = blockers of HIV-1 ZM109 envelope-driven cell-cell fusion – HeLa effector, CEM target cells, luciferase, cherry-pick, dose response (AID 652058); format: functional, cell-based;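 also: luciferase signal from HIV-1 Env mediated cell-cell fusion of effector and target cells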
[7] = intracellular Trypanosoma cruzi inhibitors in host cells – cell-based, plate reader, cherry-pick samples, set 3, dose response (AID 651818); format: functional;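 also: compounds incubated with infected cells for about four days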
[8] = viability loss in CEM21 cells – cell-based, CellTiter-Glo luminescence, cherry-picked, cytotoxicity control for viral fusion inhibitor project, dose response (AID 652042); format: functional;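 also: potency for signal decrease meaning cytotoxicity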

Sequence of Mu-type opioid receptor (P35372 whole entry): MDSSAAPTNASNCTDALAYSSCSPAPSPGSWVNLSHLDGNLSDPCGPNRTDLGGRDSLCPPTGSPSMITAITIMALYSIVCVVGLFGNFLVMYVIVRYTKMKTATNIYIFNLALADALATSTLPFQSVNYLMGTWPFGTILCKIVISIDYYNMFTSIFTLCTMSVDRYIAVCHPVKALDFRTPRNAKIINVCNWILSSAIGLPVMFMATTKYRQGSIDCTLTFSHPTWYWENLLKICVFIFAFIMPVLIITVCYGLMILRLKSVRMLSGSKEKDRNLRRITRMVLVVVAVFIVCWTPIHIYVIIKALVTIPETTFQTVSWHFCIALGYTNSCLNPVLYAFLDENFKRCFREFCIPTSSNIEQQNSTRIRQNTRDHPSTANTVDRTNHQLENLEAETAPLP

## O=C(NCCN1CCN(c2ccccc2F)CC1)C1CCCN(S(=O)(=O)c2c[nH]cn2)C1 (configuration not stated)
Mu-type opioid receptor
  EC50: 92.5 µM (inactive)
[1]
  EC50: 895 nM (active)

## O=C(Cc1cc(O)[nH]n1)N/N=C/C=C/c1ccccc1
[2]
  IC50: 7.45 µM (active)
Protein RecA
  EC50: 2.76 µM (active)
[3]
  IC50: 23.5 µM (active)
[4]
  AC50: 3.17 µM (active)

## C[C@@H]1CN([C@@H](C)CO)C(=O)c2cccc(NS(=O)(=O)c3ccc(F)cc3)c2O[C@@H]1CN(C)Cc1ccc(-c2ccccc2)cc1
[5]
  AC50: 22.4 µM (active)
[6]
  AC50: 26.5 µM (active)
[7]
  AC50: 3.81 µM (active)
[8]
  AC50: 48.1 µM (active)

## O=S(=O)(c1ccc(OCC(O)CN2CCN(c3ccccc3)CC2)cc1)N1CCOCC1 (configuration not stated)
Mu-type opioid receptor
  EC50: 92.4 µM (inactive)
[1]
  EC50: 481 nM (active)
